Laboratory results from patent US9096605B2, “Pyrazolopyrimidine derivatives as PI3 kinase inhibitors” (GlaxoSmithKline LLC, priority 2011, dated 2015).
Counter-ions that a name gives are not always drawn.

Key:
[1] = system: pAKT(Ser473) in MDA-MB-468 cells; experiment: pAKT(Ser473) assay in MDA-MB-468 cells; format: cell-based; settings: Homo sapiens, 0.5 h, compound treatment 30 minutes, MSD ELISA phospho AKT(Ser473), given as ranges, read-out: Cell Activity—pAKT IC50 in MDA-MB-468
Method: pAKT(Ser473) Assay in MDA-MB-468 Cells
MDA-MB-468 cells were plated in 384-well flat clear bottom tissue culture plates (Corning #3701) at a density of 5000 cells per 0.057 cm2 in 48 ul of RPMI 1640 media supplemented with 10% fetal bovine serum (FBS). Cells were seeded with a Wellmate liquid handler (Matrix). Columns 1 through 23 were plated with cells and column 24 contained media alone. Cells were incubated at 37° C. with 5% CO2 for approximately 16-20 hours. Duplicate compound plates were prepared in 384-well polypropylene V-Bottom plates (Greiner #781280).
Compound titrations were made across the columns (A1-A20). 20 ul of compound was added to the first column and diluted into a 20 point curve with dimethylsulfoxide (DMSO, Thermo #TS2064) using a 2-fold dilution factor with a liquid handling robot (Hamilton). Columns 22 through 24 contained DMSO alone. Titrations were diluted 682-fold for compound treatment with 4 ul of compound added to 105 ul of RPMI media. Two ul of the diluted compound was added to the cell plates containing 48 ul of media using a multimek robot (Beckman Coulter). Final DMSO concentrations were 0.15%. Cells were treated with compound for 30 minutes at 37° C. with 5% CO2.
Following incubation, media was aspirated from dosed cell plates using an ELx405 plate washer (Bio-Tek) and 25 ul of 4° C. Meso Scale Discovery (MSD) lysis buffer with the addition of protease and phosphatase inhibitors (supplied in MSD kit #N31CB-1) was added to each well using a multidrop combi (Thermo). Precoated 4-spot per well MSD ELISA plates coated with total and phospho AKT(Ser473) antibody and BSA (supplied in kit) were blocked for 1 hour at room temperature with 35 ul per well of 1× MSD wash buffer+3% BSA (supplied in kit).
Blocked plates were washed 4 times with 100 ul per well of 1× Tris wash buffer (supplied in MSD kit) using an Elx405 plate washer (Bio-Tek). To each well, 20 ul of cell lysate was added using a multimek robot (Beckman Coulter) and the plate incubated at 4° C. overnight (˜12-24 hours). Following incubation, the ELISA plates were washed 4 times (100 ul/well) with 1× Tris wash buffer. Twenty microliters per well of 1× detection antibody (supplied in MSD kit) was added using a multidrop combi (Thermo), followed by a 2 hour incubation at room temperature. Detection antibody was aspirated and the plates washed 4 times (100 ul/well) with 1× Tris wash buffer. Read Buffer (supplied in MSD kit) was added at 1× (35 ul/well) at room temperature using a multidrop (Thermo). Relative luminescence units (RLU) were determined using a SECTOR™ Imager 6000 with MSD Workbench Software.
Concentration Response Curves for pAKT(Ser473):
For analysis of the pAKT(Ser473) concentration response curves, the data was normalized using Phospho AKT values divided by the sum of corresponding Total AKT and Phospho AKT values. The normalized values are plotted as the percent of the DMSO-treated control values on the corresponding plate. To determine IC50 values, the data is fit to a 4 parameter nonlinear sigmoidal dose response (variable slope) using GraphPad Prism version 4 for Windows, (GraphPad Software, San Diego Calif. USA). Criteria for curve fitting and IC50 determination include that the IC50 values from duplicate runs must be within 2 to 3-fold of each other, the Y min must be less than or equal to 30% of the DMSO-treated control and the Y max must range between 80-120%. Any data point equal to or greater than 40% of the curve was not utilized.

[2] = target: T1, PI3K-beta (Homo sapiens, UniProt P42338); experiment: HTRF in vitro profiling assay for PI3K inhibition (beta isoform); format: biochemical; settings: PI3K-beta enzyme pIC50 range, 200 pM enzyme, 100 uM ATP, 10 uM PIP2, 150 mM NaCl, corrected pIC50, read-out: PI3K-b Enz Activity
T1 construct: made in house
Description: HTRF In Vitro Profiling Assays for PI3K Inhibition
The PI3-Kinase profiling assays were developed to measure the compound-dependent inhibition of the alpha, beta, delta, and gamma isoforms of PI3K in an in vitro catalytic assay. This assay was developed and optimized from a kit produced by Upstate (Millipore catalog #33-017). Briefly, this procedure utilizes a pre-formed HTRF (Homogeneous Time-Resolved Fluorescence energy transfer) complex between four binding partners: 1) biotinylated PIP3, 2) GST tagged pleckstrin homology (PH) domain, 3) Europium labeled anti-GST monoclonal antibody, and 4) Streptavidin-Allophycocyanin (APC). The native PIP3 produced by PI 3-Kinase activity displaces biotin-PIP3 from the PH domain, resulting in the dissociation of the HTRF complex and a decrease in the fluorescence signal. The format of this assay is the same for all 4 isoforms of PI3K; the differences lie in the concentration of enzyme used to achieve the most robust signal. The alpha and delta assays are run at 400 pM enzyme; the beta assay is at 200 pM enzyme and the gamma assay is run at 1 nM enzyme. In addition, the alpha, beta and delta assays are run with 150 mM NaCl while the gamma assay is run in the absence of NaCl. The ATP concentration is 100 uM in the alpha, beta, and delta assays and 15 uM ATP in the gamma assay. All reactions are run at 10 uM PIP2
Compounds are serially diluted (3-fold in 100% DMSO) across a 384-well polypropylene mother plate from column 1 to column 12 and column 13 to column 24, to yield 11 concentrations for each test compound. Columns 6 and 18 contain only DMSO. Once titrations are made, […] is transferred to a 384-well low-volume assay plate (Greiner 784076). This assay plate contains three pharmacological controls (known PI3K inhibitors) and 3 assay controls: (1) Enzyme without inhibitor; (2) Buffer minus enzyme, and (3) Buffer minus enzyme plus native PIP3. DMSO is stamped into all wells of columns 6 and 18. PIP3 is added at 40 μM in 1× Reaction buffer (1 μL of 200 μM PIP3) to alternating rows of column 18 (wells 18 B, D, F, H, J, L, N, P). The no-enzyme control reactions are run in wells 18 A, C, E, G, I, K, M, O (0.1 μL of 100% DMSO).
The PI3-Kinase profiling assay was optimized using the HTRF kit provided by Upstate (Millipore). The assay kit contains seven reagents: 1) 4× Reaction Buffer; 2) native PIP2 (substrate); 3) Stop A (EDTA); 4) Stop B (Biotin-PIP3); 5) Detection Mix A (Streptavidin-APC); 6) Detection Mix B (Eu-labeled Anti-GST plus GST-tagged PH-domain); 7) Detection Mix C (KF). In addition, the following items were obtained or purchased: PI3Kinase (prepared by GSK BR&AD), dithiothreitol (Sigma, D-5545), Adenosine-5′-triphosphate (ATP, Teknova cat. # A0220), native PIP3 (1,2-dioctanoyl-sn-glycero-3-[phosphoinositil-3,4,5-triphosphate]tetraammonium salt (Avanti polar lipids, 850186P), DMSO (Sigma, 472301).
PI3Kinase Reaction Buffer is prepared by diluting the stock 1:4 with de-ionized water. Freshly prepared DTT is added at a final concentration of 5 mM on the day of use. Enzyme addition and compound pre-incubation are initiated by the addition of 2.5 μL of PI3K (at twice its final concentration) in 1× reaction buffer to all wells using a Multidrop Combi. Plates are incubated at room temperature for 15 minutes. Reactions are initiated by addition of 2.5 μL of 2× substrate solution (PIP2 and ATP in 1× reaction buffer) using a Multidrop Combi. Plates are incubated at room temperature for one hour. Reactions are quenched by the addition of 2.5 μL of stop solution (Stop A and Stop B pre-mixed at a ratio of 5:1, respectively) to all wells using the Multidrop Combi. […]

T1 sequence (P42338 whole entry, canonical isoform): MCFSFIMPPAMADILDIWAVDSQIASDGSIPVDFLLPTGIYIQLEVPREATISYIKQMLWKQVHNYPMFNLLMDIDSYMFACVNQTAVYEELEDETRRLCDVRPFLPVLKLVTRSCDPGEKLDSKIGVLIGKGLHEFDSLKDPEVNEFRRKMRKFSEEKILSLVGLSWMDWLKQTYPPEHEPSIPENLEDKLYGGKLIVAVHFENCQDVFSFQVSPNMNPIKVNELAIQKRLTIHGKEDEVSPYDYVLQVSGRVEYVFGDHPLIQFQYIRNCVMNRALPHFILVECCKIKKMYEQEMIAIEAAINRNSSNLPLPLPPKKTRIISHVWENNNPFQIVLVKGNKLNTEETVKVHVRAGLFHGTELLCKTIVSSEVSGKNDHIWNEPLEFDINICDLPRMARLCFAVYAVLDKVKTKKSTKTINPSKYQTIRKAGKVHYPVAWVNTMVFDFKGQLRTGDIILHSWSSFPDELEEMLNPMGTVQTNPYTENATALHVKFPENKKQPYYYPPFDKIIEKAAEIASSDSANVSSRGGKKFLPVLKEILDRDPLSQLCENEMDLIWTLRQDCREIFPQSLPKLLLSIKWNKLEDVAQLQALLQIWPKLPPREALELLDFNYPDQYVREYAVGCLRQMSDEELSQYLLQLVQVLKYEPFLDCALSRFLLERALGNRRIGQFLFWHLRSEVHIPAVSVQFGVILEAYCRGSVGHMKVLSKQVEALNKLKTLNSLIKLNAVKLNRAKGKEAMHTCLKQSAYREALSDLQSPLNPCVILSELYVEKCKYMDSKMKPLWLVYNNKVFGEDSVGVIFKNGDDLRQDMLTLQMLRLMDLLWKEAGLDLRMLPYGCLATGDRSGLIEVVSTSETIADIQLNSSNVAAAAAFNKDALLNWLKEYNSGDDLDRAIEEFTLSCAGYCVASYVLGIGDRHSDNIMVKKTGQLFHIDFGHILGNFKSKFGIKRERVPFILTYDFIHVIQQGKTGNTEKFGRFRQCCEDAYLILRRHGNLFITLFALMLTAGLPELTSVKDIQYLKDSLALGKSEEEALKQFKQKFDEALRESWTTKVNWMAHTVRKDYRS
T1 sequence (P27986 whole entry partner, canonical isoform): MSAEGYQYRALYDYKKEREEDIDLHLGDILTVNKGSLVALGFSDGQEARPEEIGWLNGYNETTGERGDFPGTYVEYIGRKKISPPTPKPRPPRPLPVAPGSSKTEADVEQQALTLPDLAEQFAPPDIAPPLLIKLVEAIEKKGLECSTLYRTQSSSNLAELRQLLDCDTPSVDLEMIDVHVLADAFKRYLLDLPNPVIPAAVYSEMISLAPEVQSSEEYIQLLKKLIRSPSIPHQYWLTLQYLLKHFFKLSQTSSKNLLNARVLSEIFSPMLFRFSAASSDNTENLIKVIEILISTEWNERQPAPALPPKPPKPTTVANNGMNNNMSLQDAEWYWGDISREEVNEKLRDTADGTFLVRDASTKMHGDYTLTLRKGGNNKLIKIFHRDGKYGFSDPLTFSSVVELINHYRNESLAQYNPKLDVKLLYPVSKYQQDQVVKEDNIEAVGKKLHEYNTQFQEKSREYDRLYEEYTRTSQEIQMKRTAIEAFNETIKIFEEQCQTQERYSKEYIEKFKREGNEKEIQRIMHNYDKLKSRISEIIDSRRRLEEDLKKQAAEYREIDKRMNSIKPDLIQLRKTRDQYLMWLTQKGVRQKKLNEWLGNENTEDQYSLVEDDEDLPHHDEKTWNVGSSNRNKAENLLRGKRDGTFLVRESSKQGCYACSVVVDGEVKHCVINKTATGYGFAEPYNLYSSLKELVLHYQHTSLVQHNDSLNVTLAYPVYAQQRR

Structure (SMILES)	IC50 [1] [nM]	IC50 [2] [nM]
Nc1nn2c(O)cc(C3CCOCC3)nc2c1Cc1cccc(Cl)c1Cl [Example 26, 2-amino-3-(2,3-dichlorobenzyl)-5-(tetrahydro-2H-pyran-4-yl)pyrazolo[1,5-a]pyrimidin-7-ol hydrochloride]	1000 to 5000	1.26 to 10
Nc1cc(N2CCOCC2)nc2c(Cc3cccc(Cl)c3Cl)cnn12 [Example 20, 3-(2,3-dichlorobenzyl)-5-morpholinopyrazolo[1,5-a]pyrimidin-7-amine]	< 1000	12.6 to 100
CCc1nn2c(O)cc(-c3ccncc3)nc2c1Cc1cccc(Cl)c1Cl [Example 31, 3-(2,3-dichlorobenzyl)-2-ethyl-5-(pyridin-4-yl)pyrazolo[1,5-a]pyrimidin-7-ol]	> 20000	0.126 to 1
Cc1nn2c(-n3ccnc3)cc(N3CCOCC3)nc2c1Cc1cccc2ccccc12 [Example 44, 4-(7-(1H-imidazol-1-yl)-2-methyl-3-(naphthalen-1-ylmethyl)pyrazolo[1,5-a]pyrimidin-5-yl)morpholine]	–	126 to 1260
COc1nn2c(O)cc(-c3ccncc3)nc2c1Cc1cccc(Cl)c1Cl [Example 35, 3-(2,3-dichlorobenzyl)-2-methoxy-5-(pyridin-4-yl)pyrazolo[1,5-a]pyrimidin-7-ol]	11000 to 20000	1.26 to 10
Cc1nn2c(-c3nn[nH]n3)cc(N3CCOCC3)nc2c1Cc1cccc2ccccc12 [Example 47, 4-(2-methyl-3-(naphthalen-1-ylmethyl)-7-(1H-tetrazol-5-yl)pyrazolo[1,5-a]pyrimidin-5-yl)morpholine]	1000 to 5000	12.6 to 100
Cc1c(Cc2cnn3c(O)cc(-c4ccncc4)nc23)cccc1C(F)(F)F [Example 13, 3-(2-methyl-3-(trifluoromethyl)benzyl)-5-(pyridin-4-yl)pyrazolo[1,5-a]pyrimidin-7-ol]	1000 to 5000	1.26 to 10
Cc1ccccc1Cc1c(C)nn2c(-c3cn[nH]c3)cc(-c3ccncc3)nc12 [Example 49, 2-methyl-3-(2-methylbenzyl)-7-(1H-pyrazol-4-yl)-5-(pyridin-4-yl)pyrazolo[1,5-a]pyrimidine]	–	126 to 1260
Cc1nn2c(N3CCOCC3)cc(N3CCOCC3)nc2c1Cc1cccc2ccccc12 [Example 28, 4,4′-(2-methyl-3-(naphthalen-1-ylmethyl)pyrazolo[1,5-a]pyrimidine-5,7-diyl)dimorpholine]	–	126 to 1260
Cc1ccccc1Cc1c(C)n(C)n2c(=O)cc(-c3ccncc3)nc12 [Example 51, 1,2-dimethyl-3-(2-methylbenzyl)-5-(pyridin-4-yl)pyrazolo[1,5-a]pyrimidin-7(1H)-one]	–	126 to 1260
COc1cc(-c2ccncc2)nc2c(Cc3cccc(Cl)c3Cl)c(C)nn12 [Example 34, 3-(2,3-dichlorobenzyl)-7-methoxy-2-methyl-5-(pyridin-4-yl)pyrazolo[1,5-a]pyrimidine]	–	126 to 1260

Results, then the compound that gave them:

IC50 [1] [nM]	IC50 [2] [nM]	Structure (SMILES)
1000 to 5000	1.26 to 10	Cc1nn2c(C(=O)O)cc(N3CCOCC3)nc2c1Cc1cccc(C(F)(F)F)c1C [Example 36, 2-methyl-3-(2-methyl-3-(trifluoromethyl)benzyl)-5-morpholinopyrazolo[1,5-a]pyrimidine-7-carboxylic acid]
< 1000	12.6 to 100	Cc1nn2c(N)cc(N3CCOCC3)nc2c1Cc1cccc(C(F)(F)F)c1C [Example 17, 2-methyl-3-(2-methyl-3-(trifluoromethyl)benzyl)-5-morpholinopyrazolo[1,5-a]pyrimidin-7-amine]
1000 to 5000	12.6 to 100	Cc1nn2c(C(=O)O)cc(N3CCOCC3)nc2c1Cc1cccc2ccccc12 [Example 37, 2-methyl-5-morpholino-3-(naphthalen-1-ylmethyl)pyrazolo[1,5-a]pyrimidine-7-carboxylic acid]
–	12.6 to 100	Cc1nn2c(N)cc(-c3ccncc3)nc2c1Cc1cccc(C(F)(F)F)c1C [Example 6, 2-methyl-3-(2-methyl-3-(trifluoromethyl)benzyl)-5-(pyridin-4-yl)pyrazolo[1,5-a]pyrimidin-7-amine]
–	126 to 1260	CC(=O)Nc1cc(N2CCOCC2)nc2c(Cc3cccc(C(F)(F)F)c3C)c(C)nn12 [Example 18, N-[2-methyl-3-{[2-methyl-3-(trifluoromethyl)phenyl]methyl}-5-(4-morpholinyl)pyrazolo[1,5-a]pyrimidin-7-yl]acetamide]
–	126 to 1260	COc1cc(N2CCOCC2)nc2c(Cc3cccc(C(F)(F)F)c3C)cnn12 [Example 12, 4-(7-methoxy-3-(2-methyl-3-(trifluoromethyl)benzyl)pyrazolo[1,5-a]pyrimidin-5-yl)morpholine]
–	126 to 1260	Cc1c(Cc2cnn3c(Cl)cc(N4CCOCC4)nc23)cccc1C(F)(F)F [Example 10, 4-(7-chloro-3-(2-methyl-3-(trifluoromethyl)benzyl)pyrazolo[1,5-a]pyrimidin-5-yl)morpholine]
